This note sets out measurements from patent US20230358751A1, “METHODS FOR THE DETECTION AND TREATMENT OF PROSTATE CANCER” (Board of Regents, The University of Texas System, priority 2020, published 2023).

For data set [1], the system named is PC-3M prostate cancer cells. On the procedure:
(§1) Horizontal axis=log(M); vertical axis=% viability relative to control. […] (i) vehicle (ii) 128 μM Eliglustat (iii) 64 μM PDMP (iv) 64 μM PPMP. Statistical significance was determined by 2-sided student t-test comparing the aggregate intensities of individual lipid species corresponding to the respective lipid domain.
(§2) To test this hypothesis, the efficacy of PDMP, PPMP and eliglustat three different inhibitors of glucosylceramide synthase (also known as UGCG; UDP-glucose:ceramide glucosyltransferase), a rate-limiting enzyme in glycosphingolipid metabolism, for reducing viability of RM-9 and PC-3M prostate cancer cells in vitro was then evaluated.

In data set [2] the test system is RM-9 prostate cancer cells. On the procedure: as §1, §2
The test system of data set [3] is RM-9 prostate cancer cells. The data set can be described thus: Lipidome alterations after short-term pharmacological inhibition of UGCG in RM-9 cells. In kind it is cell-based, mouse. Conditions: 6 hr, 128 μM Eliglustat, 64 μM PDMP, 64 μM PPMP. An excerpt: (§3) FIGS. 16A, 16B, and 16C show (16A) the induction of autophagy/mitophagy by exposure of PC-3M prostate cancer cells to Eliglustat. (i) cytotoxicity (ii) apoptosis at 4 hrs (iii) apoptosis at 24 hrs. N=3 biologically independent replicates per experimental condition. Values represent log(relative fluorescence units)±StDev. Also shown are volcano plots illustrating differences in annotated lipid species stratified by lipid domains in (16B) PC-3M and (16C) RM-9 prostate cancer cells following 6 hr challenge with 128 μM Eliglustat. (i) acylcarnitines (ii) cardiolipins (iii) diacylglycerols (iv) ether lysophospholipids (v) ether phospholipids (vi) lysophospholipids (vii) phospholipids (viii) cholesterol esters (ix) triacylglycerols (x) sphingomyelins. N=3 biologically independent replicates per experimental condition.
(§4) Sample Extraction Following transfections, cell lysates were washed 2× with pre-chilled 0.9% NaCl followed by addition of 2.5 mL of pre-chilled 3:1 isopropanol:ultrapure water. Cells were scraped using a 25 cm Cell Scraper (Sarstedt) in extraction solvent and transferred to a 15 mL conical tube (Eppendorf). Samples were briefly vortexed followed by centrifugation at 4° C. for 10 min at 2,000×g. Thereafter, 1.2 mL of metabolite extracts were transferred to 1.5 mL Eppendorf tubes and stored in −20° C. until metabolomic analysis.
(§5) Complex Lipids Pre-aliquoted EDTA plasma samples (10 μL) were extracted with 30 μL of LCMS grade 2-propanol (ThermoFisher) in a 96-well microplate (Eppendorf). Plates were heat sealed, vortexed for 5 min at 750 rpm, and centrifuged at 2000×g for 10 minutes at room temperature. The supernatant (10 μL) was carefully transferred to a 96-well plate, leaving behind the precipitated protein. The supernatant was further diluted with 90 μL of 1:3:2 100 mM ammonium formate, pH 3 (ThermoFisher): acetonitrile: 2-propanol and transferred to a 384-well microplate (Eppendorf) for lipids analysis using LCMS. […]

The test system of data set [4] is PC-3M prostate cancer cells. The data set can be described thus: Lipidome alterations after short-term pharmacological inhibition of UGCG in PC-3M cells. In kind it is cell-based, human. Conditions: 6 hr, 128 μM Eliglustat, 64 μM PDMP, 64 μM PPMP.
From the text: as §3, §4, §5

Data set [5] concerns PC-3M prostate cancer cells. The data set can be described thus: Cytotoxicity and apoptosis of PC-3M cells exposed to eliglustat. In kind it is cell-based. On the procedure: as §2
In data set [6] the test system is PC-3M cells. The data set can be described thus: Mitophagy markers and mitochondrial morphology in PC-3M cells treated with eliglustat. In kind it is cell-based, human. The protocol:
FIGS. 17A, 17B, 17C, and 17D show representative confocal microscopy images for PC-3M cells following 24 hr pre-transfection with (i) CellLight Mitochondria-RFP (leader sequence of E1 alpha pyruvate dehydrogenase) or (ii) CellLight Lysosome-GFP (lysosomal associated 1052 membrane protein 1) followed by acute (6 hr) treatment with either (17A) vehicle or (17C) Eliglustat (128 μM). (17B) and (17D) correspond to enlargements of features from (17A) and (17C), respectively. (iii) merged images.

Data set [7] has as its system PC-3M cells. The data set can be described thus: Viability (MTS assay) of PC-3M cells treated with eliglustat after CAV1 knockdown or Cav-1 blocking antibody. In kind it is cell-based, human. Conditions: 128 μM eliglustat. On the procedure: (§6) FIGS. 18A and 18B show (18A) the viability (MTS assay) of PC-3M cells treated with 128 μM eliglustat after (left) knockdown of CAV1: or (right) following pre-treatment with Cav-1 monoclonal blocking antibody: (i) siCtrl (ii) siCAV1-1 (iii) siCAV1-2 (iv) IgG=vehicle (v) IgG+Eliglustat (vi) abCAV1+Vehicle (vii) abCAV1+Eliglustat. (18B) Viability (MTS assay) of LNCaP cells treated with 64 μM eliglustat following Cav-1 overexpression.
A general note: Tetrazolium dyes change colour on reduction, which living cells bring about.

Another data set relates to LNCaP cells. The data set can be described thus: Viability (MTS assay) of LNCaP cells treated with eliglustat following Cav-1 overexpression. In kind it is cell-based, human. To be noted: 64 μM eliglustat. The protocol:
as §6

For the next data set, the system named is RM-9 tumors. Description: RM-9-luciferase subcutaneous tumor model in C57BL/6N mice. In kind it is in vivo, mouse. The protocol:
FIGS. 19A, 19B, 19C, and 19D show the efficacy of eliglustat in an in vivo mouse model. (19A) Relative fluorescence units±SEM of RM-9 tumors following daily intraperitoneal injection with either (i) saline (n=23) or (ii) eliglustat (60 mg/kg) (n=9). (19B) Tumor Volume±SEM following treatment with either saline (n=15) or eliglustat (60 mg/kg) (n=8). Statistical significance was determined by 2-sided Wilcoxon-rank sum test. (19C) Representative IVIS images following treatment. (19D) Relative abundance (area units±StDev) of glycosphinoglipids in RM-9 tumors following treatment.
FIGS. 20A, 20B, 20C, 20D, 20E, and 20F show quantitative analyses derived from immunohistochemistry staining for (20A) Cav-1, (20B) BrdU-TUNEL, (20C) PCNA, (20D) HMGB1 and (20E) LC3B in RM-9 tumors following treatment with either saline (n=6-8 mice) or eliglustat (n=7 mice). Vertical axes are (20A) Cav-1 staining score, (20B) apoptotic bodies/fd, (20C) % of PCNA labeling, (20D) % of cytoplasmic HMGB1, and (20E) LC-3B positive cells/fd. Statistical significance was determined by 2-sided Wilcoxon rank sum test. Also shown is (20F) volcano plot illustrating fold change in individual annotated lipid species stratified by lipid domain in plasma of RM-9 bearing C57BL/6N mice or control mice. (i) acylcarnitines (ii) ceramides (iii) cholesterol esters (iv) diacylglycerols (v) free fatty acids (vi) glycosphingolipids (vii) lysophospholipids (viii) oxylipins (ix) phospholipids (x) sphingomyelins (x) triacylglycerols.
Inhibition of tumor growth by eliglustat was next examined. RM-9 cells harbor driver oncogenic RAS and MYC genes which model RAS-MAPK pathway activation and MYC-driven transcriptional activities which are associated with aggressive primary prostate cancer. RM-9-luciferase cells were subcutaneously implanted into C57BL/6N mice. RM-9 tumor growth was suppressed by eliglustat (FIGS. 19A, 19B, and 19C). […] In addition, plasma Cav-1 levels tended to be elevated in RM-9 tumor-bearing mice compared to control mice.

Setting [8] is: immunohistochemistry, RM-9 tumors.

Read-outs that look alike come from different tables or passages of the source.

As for `CCCCCCCCCC(=O)NC(CN1CCOCC1)C(O)c1ccccc1` (stereo not shown) [PDMP, 1-phenyl-2-decanoylamino-3-morpholino-1-propanol], the “cytotoxicity (viability relative to control)” value in data set [1] and in data set [2] was “dose-dependent cytotoxicity” each time. The “alterations in the lipidome” value in [3] was “accumulation of intracellular ceramides, acylcarnitines, lysophospholipids and diacylglycerols and reductions in glycosphingolipids, phospholipids and triacylglycerols”; in [4], “accumulation of intracellular ceramides, acylcarnitines, lysophospholipids and diacylglycerols and reductions in glycosphingolipids, phospholipids and triacylglycerols”.
Consider `CCCCCCCCCCCCCCCC(=O)N[C@H](CN1CCOCC1)[C@H](O)c1ccccc1` [PPMP, D-threo-1-phenyl-2-hexadecanoylamino-3-morpholino-1-propanol], for which the “cytotoxicity (viability relative to control)” value in [1] and in [2] was “dose-dependent cytotoxicity” in each case. Further, the “alterations in the lipidome” value was “accumulation of intracellular ceramides, acylcarnitines, lysophospholipids and diacylglycerols and reductions in glycosphingolipids, phospholipids and triacylglycerols” in [3]; “accumulation of intracellular ceramides, acylcarnitines, lysophospholipids and diacylglycerols and reductions in glycosphingolipids, phospholipids and triacylglycerols” in data set [4].
With `CCCCCCCC(=O)N[C@H](CN1CCCC1)[C@H](O)c1ccc2c(c1)OCCO2` [eliglustat], the “cytotoxicity (viability relative to control)” value in [1] (PC-3M cells, 48 hour treatment) is “dose-dependent cytotoxicity”. Moreover, the “cytotoxicity (viability relative to control)” value in data set [2] (RM-9 cells, 48 hour treatment) is reported as “dose-dependent cytotoxicity”. The “alterations in the lipidome” value in data set [3] is “accumulation of intracellular ceramides, acylcarnitines, lysophospholipids and diacylglycerols and reductions in glycosphingolipids, phospholipids and triacylglycerols”. Moreover, the “alterations in the lipidome” value in [4] is “accumulation of intracellular ceramides, acylcarnitines, lysophospholipids and diacylglycerols and reductions in glycosphingolipids, phospholipids and triacylglycerols”. Besides, the “mechanism of acute cytotoxic effects (cytotoxicity, apoptosis at 4 hrs and 24 hrs)” value in data set [5] is “non-apoptotic mechanism”. In addition, the “protein expression of mitophagy-associated marker LC3B-II” value in the data set with PC-3M cells [6] is reported as “increased”. The “protein expression of Parkin and PINK1” value with PC-3M cells [6] (acute (6 hr) treatment) is given as “increased”. In addition, in the data set with PC-3M cells [6] (acute (6 hr) treatment, 128 μM), the mitochondrial morphology result is “loss of the branched, fused-like-mitochondrial architecture and accumulation of punctate mitochondria co-localized with the lysosome”. Further, the “sensitivity to eliglustat (viability, MTS) after knockdown of CAV1” value in the data set on PC-3M cells [7] is given as “further sensitized”. Besides, in the data set on LNCaP cells, the “anti-cancer effect (viability, MTS) following Cav-1 overexpression” value was “reduced the anti-cancer effects”. Moreover, the RM-9 tumor growth result in the data set with RM-9 tumors (C57BL/6N mice, 60 mg/kg daily intraperitoneal injection) is on record as “suppressed”. Besides, the “glycosphingolipids in RM-9 tumor tissue” value in the data set with RM-9 tumors (C57BL/6N mice, 60 mg/kg, metabolomics of tumor tissue) was “reductions in glycosphingolipids”. In the data set on RM-9 tumors (setting [8]), the “BrdU-TUNEL staining in tumor tissue” value is “statistically significantly increased”, the “Cav-1 staining in tumor tissue” value is given as “statistically significantly reduced”, the “HMGB1 staining in tumor tissue” value is given as “statistically significantly increased” and the “LC3B staining in tumor tissue” value is “statistically significantly increased”. In addition, the “PCNA staining in tumor tissue” value in the data set on RM-9 tumors (setting [8]) is “statistically significantly reduced”.
